The test system of series [1] is Human promyelocytic leukemia cells (HL-60). In words: Induced differentiation of HL-60 cells (NBT reduction). The series is classed as cell-based. The conditions noted are these: 0.1 μg/ml (10×10^−7 g/ml). The procedure: (§1) Human promyelocytic leukemia cells (HL-60) were grown in RPMI Medium 1640 supplemented with 10% (v/v) heat-inactivated FBS (56° C. for 30 min) at 37° C. in a humidified 95% air/5% CO2 atmosphere. Cells were seeded at a level of 2×10^5 cells/ml. Cells were allowed to attain a maximum density of 1.2×10^6 cells/ml before being passed by dilution into fresh medium to a concentration of 2×10^5 cells/ml. Differentiation was induced in HL-60 cells by treatment with 0.1 μg/ml ([…]) of CUR or PK-CUR-NP. Cell differentiation was measured by the ability of cells to reduce NBT.
as §1, with “ELE” for “CUR”, “PK-ELE-NP.” for “PK-CUR-NP.”, “NBT. Increasing NBT % means that cancer cells are differentiation.” for “NBT.”
as §1, with “CPT” for “CUR”, “PK-CPT-NP.” for “PK-CUR-NP.”, “NBT. Increasing NBT % means that cancer cells are differentiation.” for “NBT.”

In series [2] the test system is L1210. Description: Growth of transplanted tumor, L1210 (tumor weight). Format: in vivo, mice. Particulars: 20 mg/kg i.p. from second day, tumor weight on 12th day. Here is the method:
(§2) Male mice, weight 20-22 g, were used in the experiment. 1×10^7 tumor cells were injected to mouse and PK-HHT-NP injected intraperitoneally began second day. All mice were sacrificed on the 12th days, isolated the tumor and weighed and calculated the inhibition rate of tumor weight.
(§3) Male mice, weight 20-22 g, were used in the experiment. 1×10^7 tumor cells were injected to mouse and CUR and PK-CUR-NP injected intraperitoneally began second day. All mice were sacrificed on the 12th days, isolated the tumor and weighed and calculated the inhibition rate of tumor weight.
(§4) Male mice, weight 20-22 g, were used in the experiment. 1×10^7 tumor cells were injected to mouse and ELE injected intraperitoneally began second day. All mice were sacrificed on the 12th days, isolated the tumor and weighed and calculated the inhibition rate of tumor weight.
(§5) Male mice, weight 20-22 g, were used in the experiment. 1×10^7 tumor cells were injected to mouse and CPT injected intraperitoneally began second day. All mice were sacrificed on the 12th days, isolated the tumor and weighed and calculated the inhibition rate of tumor weight.

Series [3] has as its system S180. Description: Growth of transplanted tumor, S180 (tumor weight). Format: in vivo, mice. The conditions noted are these: 20 mg/kg i.p. from second day, tumor weight on 12th day. The procedure:
as §2, §3, §4, §5

Series [4] has as its system S180, ECS, HCS, ARS, U-14 and L615 transplanted tumor. In words: Growth of transplanted tumors. Format: in vivo, mice. The conditions noted are these: 20 mg/kg. The procedure: as §2, §3, §4, §5
Series [5] relates to Hela. In words: Inhibition of tumor cell proliferation, Hela. Format: cell-based, human. Particulars: 72 hours. The procedure:
Human tumor cell lines: Hela leukemia HL-60, malignant melanocarcinoma B16, oral epidermoid carcinoma (KB), lung carcinoma (A549), breast carcinoma MCF-7, adenocarcinoma of stomach.
Animal tumor cell lines: Walker carcinoma, LLC-WRC-256, malignant melanoma (RMMI 1846), 3T3, and S-180 sarcoma (CCRF-180). All lines were routinely cultured in the RPMI1640 medium supplemented 20% fetal calf serum. The experiment was carried out in 96 microplate, each well had 5×10^5 cells and given desired concentration of 1 μg/ml (1×10^−6 g/ml) drug. Then the plate was incubated at 37° C. in an atmosphere of humidified air enriched with 5 percent carbon dioxide for 72 hours.
Inhibition percent rate of tumor cell proliferation was obtained according to the bellow formula. [formula]
Animal tumor cell lines: Walker carcinoma, LLC-WRC-256, malignant melanoma (RMMI 1846), 3T3, and S-180 sarcoma (CCRF-180). All lines were routinely cultured in the RPMI1640 medium supplemented 20% fetal calf serum. The experiment was carried out in 96 microplate, each well had 5×10^5 cells and given desired concentration of 1 μg/ml (1×10^−6 g/ml) drug. Then the plate was incubated at 37° C. in an atmosphere of humidified air enriched with 5 percent carbon dioxide for 72 hours. Concentration of CUR or PK-CUR-NP is 50ng/ml.
Animal tumor cell lines: Walker carcinoma, LLC-WRC-256, malignant melanoma (RMMI 1846), 3T3, and S-180 sarcoma (CCRF-180). All lines were routinely cultured in the RPMI1640 medium supplemented 20% fetal calf serum. The experiment was carried out in 96 microplate, each well had 5×10^5 cells and given desired concentration of 1 μg/ml (1×10^−6 g/ml) drug. Then the plate was incubated at 37° C. in an atmosphere of humidified air enriched with 5 percent carbon dioxide for 72 hours. Concentration of ELE or PK-ELE-NP is 50 ng/ml.
Animal tumor cell lines: Walker carcinoma, LLC-WRC-256, malignant melanoma (RMMI 1846), 3T3, and S-180 sarcoma (CCRF-180). All lines were routinely cultured in the RPMI1640 medium supplemented 20% fetal calf serum. The experiment was carried out in 96 microplate, each well had 5×10^5 cells and given desired concentration of 1 μg/ml (1×10^−6 g/ml) drug. Then the plate was incubated at 37° C. in an atmosphere of humidified air enriched with 5 percent carbon dioxide for 72 hours. Concentration of CPT or PK-CPT-NP is 50 ng/ml.

Series [6] relates to Lewis. In words: Growth of transplanted tumor, Lewis (tumor weight). Format: in vivo, mice. The conditions noted are these: 20 mg/kg i.p. from second day, tumor weight on 12th day. The procedure: as §2, §3, §4, §5
A short description of series [7]: Acute toxicity LD50.
Where [8] appears, read: mice, I.P. (injection in abdominal cavity).

As to `CC[C@@]1(O)C(=O)OCc2c1cc1n(c2=O)Cc2cc3ccccc3nc2-1` [CPT, Camptothecin], the “NBT % (percentage of cells capable of reducing NBT)” value in series [1] came to 65.8 ± 9.1%. Moreover, the “Inhibition (%) of transplanted tumor” value turned out to be 68.5 ± 9.8% in series [2], 63.2 ± 12.1% in series [3] and 60.8 ± 10.4% in series [6]. In addition, the “growth of transplanted tumor” value in series [4] is “could inhibit the growth”. In addition, at 0.05 µg/mL the inhibition in series [5] (Homo sapiens, HeLa, 50 ng/ml) was 60.8 ± 12.2%. Besides, the LD50 in series [7] (mouse, in vivo, ip) worked out at 76 mg/kg.
For `C=C1C[C@@]2(O)O[C@@]3(C[C@H]2C(C)C)[C@@H](C)CC[C@@H]13` [CUR, Curcumol], the “NBT % (percentage of cells capable of reducing NBT)” value in series [1] turned out to be 68.5 ± 8.5%. Further, the results for the “Inhibition (%) of transplanted tumor” value in series [2], in series [3] and in series [6] were 70.8 ± 9.0%, 63.7 ± 7.3% and 68.9 ± 7.8%, respectively. Besides, the “growth of transplanted tumor” value in series [4] is “could inhibit the growth”. Moreover, the “Inhibition (%)” value in series [5] (50 ng/ml) is 67.2 ± 10.4%. Moreover, the LD50 in series [7] (setting [8]) is recorded as 325 mg/kg.
`COC(=O)C[C@](O)(CCCC(C)(C)O)C(=O)O[C@@H]1C(OC)=C[C@]23CCCN2CCc2cc4c(cc2[C@H]13)OCO4` [HHT, Homoharringtonine]: the “Inhibition (%) of transplanted tumor” value in series [2] is 87 ± 9%; in series [3], 76 ± 8%; in series [6], 70 ± 6%. 1 µg/mL produced 75.6 ± 8% inhibition in series [5] (Homo sapiens, HeLa, 1 μg/ml). This compound also came in with an LD50 in series [7] (mouse, in vivo, ip) of 3.3 ± 0.29 mg/kg.
In the case of Eelemene, the “NBT % (percentage of cells capable of reducing NBT)” value in series [1] is reported as 69.5 ± 10.1%. Moreover, the “Inhibition (%) of transplanted tumor” value in series [2] was 71.8 ± 9.5%; in series [3], 67.57 ± 9.1%; in series [6], 65.8 ± 10.5%. In addition, the “growth of transplanted tumor” value in series [4] was “could inhibit the growth”. The “Inhibition (%)” value in series [5] (50 ng/ml) was 69.8 ± 11.2%. In addition, the LD50 in series [7] (setting [8]) is 318 mg/kg.
